Laboratory results as given in patent publication US20260200939A1, “MOLECULAR GLUE DEGRADER COMPOUNDS AND USES THEREOF” (Novartis AG, priority 2022, published 2026).
Each block holds one compound with its values, some of them ahead of it.

Experiments:
[1] = target: T1, BRD4 long (Homo sapiens, UniProt O60885); test: BRD4 (long) degradation assay, Western blotting; format: cell-based
T1 construct: endogenous in cells; host or cells: HEK293T
Description: (§1) C33A cells were purchased from American Type Culture Collection (ATCC) and were cultured in Dulbecco's Modified Eagle Medium (DMEM) containing 10% (v/v) fetal bovine serum (FBS) and maintained at 37° C. with 5% CO2. 22RV1 cells were purchased from the ATCC and were cultured in RPMI-1640 Medium containing 10% (v/v) FBS and maintained at 37° C. with 5% CO2. HEK293T cells were obtained from the UC Berkeley Cell Culture Facility and were cultured in DMEM containing 10% (v/v) FBS and maintained at 37° C. with 5% CO2. K562 cells were obtained from the UC Berkeley Cell Culture Facility and were cultured in Iscove's Modified Dulbecco's Medium (IMDM) containing 10% (v/v) FBS and maintained at 37° C. with 5% CO2. MV-4-11 cells were obtained from the ATCC and were cultured in IMDM containing 10% (v/v) FBS and maintained at 37° C. with 5% CO2. A549 cells were obtained from the ATCC and were cultured in F-12K Medium containing 10% (v/v) FBS and maintained at 37° C. with 5% CO2. Mino cells were obtained from the ATCC and were cultured in RPMI-1640 Medium containing 10% (v/v) FBS and maintained at 37° C. with 5% CO2. LNCaP cells were obtained from the ATCC and were cultured in RPMI-1640 Medium containing 10% (v/v) FBS and maintained at 37° C. with 5% CO2. Unless otherwise specified, all cell culture materials were purchased from Gibco. It is not known whether HEK293T cells are from male or female origin.
(§2) Cells were washed twice with cold PBS, scraped, and pelleted by centrifugation (700 g, 5 min, 4° C.). Pellets were resuspended in PBS, sonicated, clarified by centrifugation (12,000 g, 10 min, 4° C.), and lysate was transferred to new low-adhesion microcentrifuge tubes. Proteome concentrations were determined using BCA assay and lysate was diluted to appropriate working concentrations.
(§3) Proteins were resolved by SDS/PAGE and transferred to nitrocellulose membranes using the Trans-Blot Turbo transfer system (Bio-Rad). Membranes were blocked with 5% BSA in Tris-buffered saline containing Tween 20 (TBS-T) solution for 30 min at RT, washed in TBS-T, and probed with primary antibody diluted in recommended diluent per manufacturer overnight at 4° C. After 3 washes with TBS-T, the membranes were incubated in the dark with IR680- or IR800-conjugated secondary antibodies at 1:10,000 dilution in 5% BSA in TBS-T at RT for 1 h. After 3 additional washes with TBST, blots were visualized using an Odyssey Li-Cor fluorescent scanner. The membranes were stripped using ReBlot Plus Strong Antibody Stripping Solution (EMD Millipore) when additional primary antibody incubations were performed. Antibodies used in this study were CDK4 (Abcam ab108357), Vinculin (Abcam ab129002), GAPDH (Cell Signaling Technology 14C10), RNF126 (Santa Cruz Biotechnology sc-376005), BRD4 (Abcam ab128874), Beta Actin (Cell Signaling Technology 13E5), PDE5 (Abcam ab259945), AR-V7 (Abcam ab273500), c-Abl (Santa Cruz Biotechnology sc-23), SMARCA2 (Abcam ab240648), LRRK2 (Abcam ab133474), BTK (Cell Signaling Technology D3H5), Androgen Receptor (Abcam ab133273).

[2] = target: T2, BRD4 short (Homo sapiens, UniProt O60885); test: BRD4 (short) degradation assay, Western blotting; format: cell-based
T2 construct: endogenous in cells; host or cells: HEK293T
Description: as §1, §2, §3

[3] = first value of cell, range with lower bound in nM and upper bound in μM
[4] = second value of cell, range with lower bound in nM and upper bound in μM
[5] = first value of cell (long/short)
[6] = second value of cell (long/short)

DC50 [1, 3]: 100 to 1000 nM
DC50 [2, 4]: 100 to 1000 nM
SMILES: Cc1sc2c(c1C)C(c1ccc(Cl)cc1)=N[C@@H](CC(=O)N1CCN(C(=O)/C=C/C(=O)Nc3cccn(C)c3=O)CC1)c1nnc(C)n1-2 [Compound 247, (S,E)-4-(4-(2-(4-(4-chlorophenyl)-2,3,9-trimethyl-6H-thieno[3,2-f][1,2,4]triazolo[4,3-a][1,4]diazepin-6-yl)acetyl)piperazin-1-yl)-N-(1-methyl-2-oxo-1,2-dihydropyridin-3-yl)-4-oxobut-2-enamide]

DC50 [1, 5]: 10 to 100 nM
DC50 [2, 6]: 10 to 100 nM
SMILES: Cc1sc2c(c1C)C(c1ccc(Cl)cc1)=N[C@@H](CC(=O)N[C@H]1C[C@@H](NC(=O)/C=C/C(=O)C(C)(C)C)C1)c1nnc(C)n1-2 [Compound 277, (E)-N-((1R,3s)-3-(2-((S)-4-(4-chlorophenyl)-2,3,9-trimethyl-6H-thieno[3,2-f][1,2,4]triazolo[4,3-a][1,4]diazepin-6-yl)acetamido)cyclobutyl)-5,5-dimethyl-4-oxohex-2-enamide]

DC50 [1, 3]: 100 to 1000 nM
DC50 [2, 4]: 100 to 1000 nM
SMILES: Cc1sc2c(c1C)C(c1ccc(Cl)cc1)=N[C@@H](CC(=O)N[C@H]1C[C@@H](NC(=O)/C=C/C(=O)c3ccc(=O)n(C)c3)C1)c1nnc(C)n1-2 [Compound 243, (E)-N-((1R,3s)-3-(2-((S)-4-(4-chlorophenyl)-2,3,9-trimethyl-6H-thieno[3,2-f][1,2,4]triazolo[4,3-a][1,4]diazepin-6-yl)acetamido)cyclobutyl)-4-(1-methyl-6-oxo-1,6-dihydropyridin-3-yl)-4-oxobut-2-enamide]

DC50 [1, 5]: > 5000 nM
DC50 [2, 6]: > 5000 nM
SMILES: COc1ccc2c(c1)CCN(C(=O)/C=C/C(=O)N1CCN(C(=O)C[C@@H]3N=C(c4ccc(Cl)cc4)c4c(sc(C)c4C)-n4c(C)nnc43)CC1)C2 [Compound 252, (S,E)-1-(4-(2-(4-(4-chlorophenyl)-2,3,9-trimethyl-6H-thieno[3,2-f][1,2,4]triazolo[4,3-a][1,4]diazepin-6-yl)acetyl)piperazin-1-yl)-4-(6-methoxy-3,4-dihydroisoquinolin-2(1H)-y1)but-2-ene-1,4-dione]

DC50 [1, 5]: > 5000 nM
DC50 [2, 6]: 10 to 100 nM
SMILES: COc1ccc2c(c1)CCCN2C(=O)/C=C/C(=O)N1CCN(C(=O)C[C@@H]2N=C(c3ccc(Cl)cc3)c3c(sc(C)c3C)-n3c(C)nnc32)CC1 [Compound 251, (S,E)-1-(4-(2-(4-(4-chlorophenyl)-2,3,9-trimethyl-6H-thieno[3,2-f][1,2,4]triazolo[4,3-a][1,4]diazepin-6-yl)acetyl)piperazin-1-yl)-4-(6-methoxy-3,4-dihydroquinolin-1(2H)-yl)but-2-ene-1,4-dione]

Continued, compound first:

SMILES: COc1ccc(C(=O)/C=C(\C#N)C(=O)N2CCN(C(=O)C[C@@H]3N=C(c4ccc(Cl)cc4)c4c(sc(C)c4C)-n4c(C)nnc43)CC2)cc1 [Compound 144, (S,E)-2-(4-(2-(4-(4-chlorophenyl)-2,3,9-trimethyl-6H-thieno[3,2-f][1,2,4]triazolo[4,3-a][1,4]diazepin-6-yl)acetyl)piperazine-1-carbonyl)-4-(4-methoxyphenyl)-4-oxobut-2-enenitrile]
DC50 [1, 5]: > 1000 nM
DC50 [2, 6]: > 1000 nM

SMILES: COc1ccccc1C(=O)/C=C/C(=O)N1CCN(C(=O)C[C@@H]2N=C(c3ccc(Cl)cc3)c3c(sc(C)c3C)-n3c(C)nnc32)CC1 [Compound 142, (S,E)-1-(4-(2-(4-(4-chlorophenyl)-2,3,9-trimethyl-6H-thieno[3,2-f][1,2,4]triazolo[4,3-a][1,4]diazepin-6-yl)acetyl)piperazin-1-yl)-4-(2-methoxyphenyl)but-2-ene-1,4-dione]
DC50 [1, 5]: < 100 nM
DC50 [2, 6]: < 100 nM

SMILES: Cc1sc2c(c1C)C(c1ccc(Cl)cc1)=N[C@@H](CC(=O)N1CCN(C(=O)/C=C/C(=O)c3cccc(C#N)c3)CC1)c1nnc(C)n1-2 [Compound 239, (S,E)-3-(4-(4-(2-(4-(4-chlorophenyl)-2,3,9-trimethyl-6H-thieno[3,2-f][1,2,4]triazolo[4,3-a][1,4]diazepin-6-yl)acetyl)piperazin-1-yl)-4-oxobut-2-enoyl)benzonitrile]
DC50 [1, 3]: 100 to 1000 nM
DC50 [2, 4]: 100 to 1000 nM

SMILES: Cc1sc2c(c1C)C(c1ccc(Cl)cc1)=N[C@@H](CC(=O)N1CCN(C(=O)/C=C/C(=O)c3ccc(=O)n(C)c3)CC1)c1nnc(C)n1-2 [Compound 242, (S,E)-1-(4-(2-(4-(4-chlorophenyl)-2,3,9-trimethyl-6H-thieno[3,2-f][1,2,4]triazolo[4,3-a][1,4]diazepin-6-yl)acetyl)piperazin-1-yl)-4-(1-methyl-6-oxo-1,6-dihydropyridin-3-y1)but-2-ene-1,4-dione]
DC50 [1, 5]: 80 nM
DC50 [2, 6]: 40 nM

SMILES: Cc1sc2c(c1C)C(c1ccc(Cl)cc1)=N[C@@H](CC(=O)N[C@H]1C[C@H](NC(=O)/C=C/C(=O)c3ccc4c(c3)CCO4)C1)c1nnc(C)n1-2 [Compound 211, (E)-N-((1S,3r)-3-(2-((S)-4-(4-chlorophenyl)-2,3,9-trimethyl-6H-thieno[3,2-f][1,2,4]triazolo[4,3-a][1,4]diazepin-6-yl)acetamido)cyclobutyl)-4-(2,3-dihydrobenzofuran-5-yl)-4-oxobut-2-enamide]
DC50 [1, 5]: 10 to 100 nM
DC50 [2, 6]: 10 to 100 nM

SMILES: COc1ccc(C(=O)/C=C/C(=O)N2CCN(C(=O)C[C@@H]3N=C(c4ccc(Cl)cc4)c4c(sc(C)c4C)-n4c(C)nnc43)CC2)cc1F [Compound 237, (S,E)-1-(4-(2-(4-(4-chlorophenyl)-2,3,9-trimethyl-6H-thieno[3,2-f][1,2,4]triazolo[4,3-a][1,4]diazepin-6-yl)acetyl)piperazin-1-yl)-4-(3-fluoro-4-methoxyphenyl)but-2-ene-1,4-dione]
DC50 [1, 5]: < 100 nM
DC50 [2, 6]: < 100 nM

SMILES: COc1ccc(C(=O)/C=C/C(=O)N[C@H]2C[C@H](NC(=O)C[C@@H]3N=C(c4ccc(Cl)cc4)c4c(sc(C)c4C)-n4c(C)nnc43)C2)cc1F [Compound 236, (E)-N-((1S,3r)-3-(2-((S)-4-(4-chlorophenyl)-2,3,9-trimethyl-6H-thieno[3,2-f][1,2,4]triazolo[4,3-a][1,4]diazepin-6-yl)acetamido)cyclobutyl)-4-(3-fluoro-4-methoxyphenyl)-4-oxobut-2-enamide]
DC50 [1, 5]: 90 nM
DC50 [2, 6]: 190 nM

SMILES: COc1ccc(C(=O)/C=C/C(=O)N2[C@H](C)CN(C(=O)C[C@@H]3N=C(c4ccc(Cl)cc4)c4c(sc(C)c4C)-n4c(C)nnc43)C[C@@H]2C)cc1 [Compound 215, (E)-1-((2S,6R)-4-(2-((S)-4-(4-chlorophenyl)-2,3,9-trimethyl-6H-thieno[3,2-f][1,2,4]triazolo[4,3-a][1,4]diazepin-6-yl)acetyl)-2,6-dimethylpiperazin-1-yl)-4-(4-methoxyphenyl)but-2-ene-1,4-dione]
DC50 [1, 5]: < 10 nM
DC50 [2, 6]: 10 to 100 nM

SMILES: COc1ccc(C(=O)/C=C/C(=O)N2CCN(C(=O)C[C@@H]3N=C(c4ccc(Cl)cc4)c4c(sc(C)c4C)-n4c(C)nnc43)C[C@@H]2C)cc1 [Compound 214, (E)-1-((S)-4-(2-((S)-4-(4-chlorophenyl)-2,3,9-trimethyl-6H-thieno[3,2-f][1,2,4]triazolo[4,3-a][1,4]diazepin-6-yl)acetyl)-2-methylpiperazin-1-yl)-4-(4-methoxyphenyl)but-2-ene-1,4-dione]
DC50 [1, 5]: 10 to 100 nM
DC50 [2, 6]: 10 to 100 nM

SMILES: Cc1sc2c(c1C)C(c1ccc(Cl)cc1)=N[C@@H](CC(=O)N[C@H]1C[C@H](NC(=O)/C=C/C(=O)c3ccccc3)C1)c1nnc(C)n1-2 [Compound 204, (E)-N-((1S,3r)-3-(2-((S)-4-(4-chlorophenyl)-2,3,9-trimethyl-6H-thieno[3,2-f][1,2,4]triazolo[4,3-a][1,4]diazepin-6-yl)acetamido)cyclobutyl)-4-oxo-4-phenylbut-2-enamide]
DC50 [1, 5]: 10 to 100 nM
DC50 [2, 6]: 10 to 100 nM
